In patent publication US7919470B2, “Glycopeptide composition with improved antibiotic activity” (Xellia Pharmaceuticals APS, priority 2003, dated 2011):
Where “and” joins values, the source holds several entries; their conditions need not be identical. Identical values can stand only once.

How the values were obtained:
[1] = test system: Staphylococcus aureus ATCC 6538; test: Microbiological potency by agar diffusion; type: cell-based; conditions: for Potency IU/mg powder: agar diffusion, Example 1 spiking experiments; for Potential potency IU/mg (TA2 + TA3-1): potency of the powder related to its HPLC content of TA2 + TA3-1
Protocol: Accordingly, in one embodiment a Teicoplanin composition as described herein, has a higher antibiotic activity than a corresponding Teicoplanin composition that has a % (mg TA3)/(mg TA3+TA2) of 6.5%, where the antibiotic activity is measured by a microbiological agar diffusion assay using Staphylococcus aureus ATCC 6538 as test strain and the measured potential potency (IU per mg TA2+TA3/g composition) is used to calculate the antibiotic activity.
(§1) Potency of Teicoplanin TA2, TA3-1 alone or in combination was determined by agar diffusion assays. Furthermore, the antimicrobial effect of pure and spiked products was investigated through the determination of the minimum inhibitory concentration (MIC) by a modified “MIC” test in micro titer trays.
The potency test is carried out according to the assay described below. The assay method generally corresponds to USP 25 and Ph.Eur 4th ed., but differs from both with respect to test strain and from the USP with respect to agar holes (ponds) as preferred to cylinders. The test is carried out as a 2,2 design as described in section <111> of the USP.
Stock solutions of standards and samples were prepared to approximately 900 IU/ml. The Teicoplanin standard contained approximately 25.0 mg in 4.0 ml water and buffer ad 25.0 ml. The samples of Teicoplanin compositions contained approximately 25.0 mg in 4.0 ml water and buffer ad 25.0 ml. The amount of sample was adjusted according to the actual amount of standard weighed. Finally, the standard and sample were diluted with buffer to the following concentrations:
The standard or sample was applied to the plates in accordance with an 8×8 Latin square design. Immediately after application, place the plates in the incubator at 34.0° C.±2° C., for 16-18 hours.
The results are analyzed by reading the zone diameters carefully with a 10× magnification and a precision of 0.1 mm. Statistical evaluation: for calculation and validation, follow the guidelines set out in Ph. Eur. and USP, using a computer program for all calculations.
In the spiking experiments, the amount of the investigated sample (amount of powder weighed) was reduced and replaced by a corresponding amount of spiking material or stock solutions were mixed in defined ratios.
(§2) Potency of teicoplanin TA2, TA3-1 alone or in combinations was determined by agar diffusion assays as described in example 1. Modified MIC-values in microtitre trays were determined as described in example 1.

S. aureus ATCC 6538 = test: Modified MIC test in micro titer trays; type: cell-based, Staphylococcus aureus; conditions: for MIC: 24 hours, 37° C.
Protocol: as §1
Pure TA3-1, (Teicoplanin Material B 96% TA2-X, 4% TA3-1) and mixtures thereof were used. The test strain used was S. aureus ATCC 6538 in final concentrations of 5×10^5/ml and 5×10^4/ml respectively. The test was carried out in micro titer trays as a modification of an ordinary MIC test. Instead of using two-fold dilutions, 0.40-1.20 μg/ml with 0.20 μl divisions and 1.0-4.0 μl/ml with 1.0 μl divisions was used. The trays were incubated at 37° C. The wells were examined after 24 hours and any visible growth was noted.
In order to strengthen the evidence some experiments were performed with a modified antimicrobial analysis of Teicoplanin, spiked with different amounts of TA3-1. It was carried out in liquid medium in contrast to the agar diffusion tests and determined the MIC values. The results are summarized in Table 4, (“MIC”-values of Teicoplanin and/or TA3-1 on S. aureus ATCC6538).
as §2

Row | Compound | Potency IU/mg powder [1] | Potential potency IU/mg (TA2 + TA3-1) [1] | Potency compared with Targocid ([1]; Example 2, agar diffusion) | MIC (S. aureus ATCC 6538; 5 × 10^4/ml S. aureus) | MIC (S. aureus ATCC 6538; 5 × 10^5/ml S. aureus) | Antimicrobial effect on S. aureus compared with Teicoplanin (S. aureus ATCC 6538; Example 1, MIC determination) | MIC value of pure TA3-1 relative to Targocid alone (S. aureus ATCC 6538; Example 2, FIG. 6, MIC in μg powder/ml solution) | Antimicrobial effect on S. aureus relative to teicoplanin TA2 (S. aureus ATCC 6538; Example 2, MIC determination)
1 | CC(=O)N[C@H]1[C@H](O[C@@H]2c3ccc(c(Cl)c3)Oc3cc4cc(c3O[C@@H]3O[C@H](CO)[C@@H](O)[C@H](O)[C@H]3NC(=O)CCCCCCC(C)C)Oc3ccc(cc3Cl)C[C@H]3NC(=O)[C@H](N)c5ccc(O)c(c5)Oc5cc(O)cc(c5)[C@H](NC3=O)C(=O)N[C@H]4C(=O)N[C@H]3C(=O)N[C@@H]2C(=O)N[C@H](C(=O)O)c2cc(O)cc(O[C@H]4O[C@H](CO)[C@@H](O)[C@H](O)[C@@H]4O)c2-c2cc3ccc2O)O[C@H](CO)[C@@H](O)[C@@H]1O [TA2-2, Teicoplanin A2-2] | 807 IU/mg powder and 776 IU/mg powder | 1017 IU/mg (TA2 + TA3-1) and 994 IU/mg (TA2 + TA3-1) | – | – | – | – | – | –
2 | CC(=O)N[C@H]1[C@H](O[C@@H]2c3ccc(c(Cl)c3)Oc3cc4cc(c3O)Oc3ccc(cc3Cl)C[C@H]3NC(=O)[C@H](N)c5ccc(O)c(c5)Oc5cc(O)cc(c5)[C@H](NC3=O)C(=O)N[C@H]4C(=O)N[C@H]3C(=O)N[C@@H]2C(=O)N[C@H](C(=O)O)c2cc(O)cc(O[C@H]4O[C@H](CO)[C@@H](O)[C@H](O)[C@@H]4O)c2-c2cc3ccc2O)O[C@H](CO)[C@@H](O)[C@@H]1O [TA3-1, Teicoplanin A3-1] | 570 IU/mg powder | 687 IU/mg (TA2 + TA3-1) | much lower potency | 2 to 3 µg/mL | 2 to 3 µg/mL | much lower | 4-5 times higher | 4-5
